Measured values as given in US10245240B2, “Treatment of prostate carcinoma” (Pellficure Pharmaceuticals, Inc., priority 2010, dated 2019).

Tested on: PTEN-P2/GFP prostate cancer cells
Test: Effect of naphthoquinone analogs on PTEN-P2/GFP cell proliferation (CellTiter96 formazan-based viability assay)
Conditions: for IC50 / viability at 1 µM / viability at 2 µM / viability at 3 µM / viability at 4 µM / viability at 5 µM / viability at 7 µM / viability at 10 µM / viability at 25 µM / viability at 50 µM: Mus musculus, 24 h; for % viability: 24 hrs, listed as 2,6-di-tert-butyl-1,4-naphtoquinone
[1] = 1 μM, medium with 10% FBS and DHT
[2] = 2 μM, medium with 10% FBS and DHT
[3] = 3 μM, medium with 10% FBS and DHT
[4] = 4 μM, medium with 10% FBS and DHT
[5] = 5 μM, medium with 10% FBS and DHT
[6] = 7 μM, medium with 10% FBS and DHT
[7] = 10 μM, medium with 10% FBS and DHT
[8] = 25 μM, medium with 10% FBS and DHT
[9] = 50 μM, medium with 10% FBS and DHT

Procedure: Cell culture: PTEN-P2/GFP are cells that stably express histone H2B-GFP fusion protein.
Cells are grown in DMEM medium containing 10% FBS, 2 mM L-glutamine, 100 U/ml penicillin/100 μg/ml streptomycin, insulin-selenium-transferrin (5 μg/ml insulin), and DHT 10^−8 M final. Androgen withdrawal is achieved by keeping the cells in phenol red-free DMEM medium containing 10% charcoal-treated FBS and the same supplements as in the normal medium except for DHT. Cells are maintained in a humidified incubator at 37° C. and 5% CO2. G418 (100 μg/ml) is added to maintain stable expression of H2B-GFP.
PTEN-P2/GFP prostate cancer cells were plated at a density of 8000 cells/well in 96-well plates (triplicates) in growing medium containing 10% Fetal Bovine Serum and DHT. The next day, increasing concentrations of a naphthoquinone analog (diluted from 10 mM DMSO stock solutions) were incubated for 24 hrs. Cell viability was determined by the formazan-based cytotoxicity assay “CellTiter96Aquaeous nonradioactive proliferation assay” (Promega).

SMILES	IC50	viability at 1 µM [1]	viability at 2 µM [2]	viability at 3 µM [3]	viability at 4 µM [4]	viability at 5 µM [5]	viability at 7 µM [6]	viability at 10 µM [7]	viability at 25 µM [8]	viability at 50 µM [9]	further results
O=C1C=CC(=O)c2ccccc21 [1,4-naphthoquinone]	24.1 µM	100%	97%	93.9%	90.4%	90.1%	88.7%	83%	47.3%	0.1%	
CC(C)(C)C1=CC(=O)c2cc(C(C)(C)C)ccc2C1=O [2,6-di-tert-butyl-1,4-naphthoquinone]		104%									% viability [2]: 104.5%; % viability [3]: 104.7%; % viability [4]: 103.0%; % viability [5]: 104.0%; % viability [6]: 102.8%; % viability [7]: 102.2%; % viability [8]: 102.9%; % viability [9]: 92.9%
O=C1C(Cl)=C(Cl)C(=O)c2ccccc21 [Dichlon]	37.8 µM										viability at 1 µM: 96.5%; viability at 2 µM: 95.6%; viability at 3 µM: 92.3%; viability at 4 µM: 92.2%; viability at 5 µM: 91.8%; viability at 7 µM: 99.3%; viability at 10 µM: 87.1%; viability at 25 µM: 89.2%; viability at 50 µM: 4.9%
O=C1C=CC(=O)c2c(O)cccc21 [Juglone]	5.3 µM	90.7%	85.1%	80.6%	80.5%	58.2%	2.3%	1.1%	2.5%	5.3%	
CC(C)=CCC1=C(O)C(=O)c2ccccc2C1=O [Lapachol]	> 50 µM	106%	105%	102%	103%	99.8%	99.7%	99.6%	96.2%	86.1%	
O=C1C=CC(=O)c2c(O)ccc(O)c21 [Naphthazarin]	1.65 µM										viability at 1 µM: 73.4%; viability at 2 µM: 36.4%; viability at 3 µM: 8.9%; viability at 4 µM: 1.5%; viability at 5 µM: 1.7%; viability at 7 µM: 2.2%; viability at 10 µM: 2.4%; viability at 25 µM: 5.4%; viability at 50 µM: 9.1%

Further lines, with some results ahead:

IC50	SMILES	viability at 1 µM [1]	viability at 2 µM [2]	viability at 3 µM [3]	viability at 4 µM [4]	viability at 5 µM [5]	viability at 7 µM [6]	viability at 10 µM [7]	viability at 25 µM [8]	viability at 50 µM [9]	further results
8.95 µM	COC1=CC(=O)c2ccccc2C1=O [2-methoxy-1,4-naphthoquinone]	93.1%	88.4%	86.9%	85%	82.5%	67.2%	43.5%	0.3%		
7.35 µM	COC1=C(OC)C(=O)c2ccccc2C1=O [DMNQ, 2,3-Dimethoxy-1,4-naphthoquinone]	95%	91%	88.5%	85.9%	85.3%	58.3%	2.4%	0.9%	0.8%	
> 50 µM	O=C1C(O)=C(C2=C(O)C(=O)c3ccccc3C2=O)C(=O)c2ccccc21 [Lawsone dimer]	98.3%	98.6%	97.4%	95.1%	96.8%	96.1%	98.6%	99.4%	97.9%	
> 50 µM	O=C1C=C(O)C(=O)c2ccccc21 [Lawsone]	90.1%	85.1%	81.3%	82.5%	80.4%	80.3%	83.1%	87%	96%	
14.5 µM	CC1=CC(=O)c2ccccc2C1=O [Menadione, menadione]	95%	93.1%	90.2%	93.5%	89.4%	94%	77.5%	2.4%	2.9%	
6.2 µM	O=C1C(SCCO)=C(SCCO)C(=O)c2ccccc21 [NSC 95397, 2,3-Bis[(2-hydroxyethyl)thio]-1,4-naphthoquinone]	104%	101%	86.6%	68.4%	53.8%	47.1%	36.3%	15.1%	4.8%	
